The values below come from patent US20260007133A1, “HERBICIDAL COMPOSITION COMPRISING AZINE COMPOUNDS” (BASF SE, priority 2022, published 2026).

Read-outs that look alike come from different tables or passages of the source.

Holding throughout (format): in vivo
In assay [1] the test system is Abutilon theophrasti. The assay is described as follows: Greenhouse post-emergence (POST) herbicidal test on ABUTH. The settings on record: for % activity: ABUTH POST. The protocol: (§1) The culture containers used were plastic pots containing loamy sand with approximately 3.0% of humus as substrate. The seeds of the test plants were sown separately for each species.
(§2) For the post-emergence treatment, the test plants were grown to a plant height of from 3 to 15 cm, depending on the plant habit, and only then treated with the active compounds which had been suspended or emulsified in water. To this end, the test plants were either sown directly, and grown in the same containers, or they were first grown separately as seedlings and transplanted into the test containers a few days prior to treatment.
(§3) Depending on the species, the plants were kept at 10-25° C. and 20-35° C., respectively.
(§4) The test period extended over 2 to 4 weeks. During this time, the plants were tended and their response to the individual treatments was evaluated.
(§5) Evaluation was carried out using a scale from 0 to 100. 100 means no emergence of the plants, or complete destruction of at least the above-ground parts, and 0 means no damage or normal course of growth. A good herbicidal activity is given at values of at least 70, and very good herbicidal activity is given at values of at least 85.
(§6) If not stated differently, the respective components A and B, and if appropriate, C were formulated as a 5% by weight strength emulsion concentrate and, with addition of the amount of solvent system, introduced into the spray liquor used for applying the active compound.
(§7) As indicated application was either post emergent (POST) at the respective growth stage (GS) of the weed (BBCH code), or pre-emergent (PRE). […]

For a further assay, the system named is Digitaria sanguinalis. The experiment in a line: Greenhouse post-emergence (POST) herbicidal test on DIGSA. The settings on record: for % activity: DIGSA POST. The protocol: as §1, §2, §3, §4, §5, §6, §7
The next assay has as its system Ipomoea hederacea. The assay is described as follows: Greenhouse post-emergence (POST) herbicidal test on IPOHE. The settings on record: for % activity: IPOHE POST. As to the method:
as §1, §2, §3, §4, §5, §6
As indicated application was either post emergent (POST) at the respective growth stage (GS) of the weed (BBCH code), or pre-emergent (PRE).
Assessment was 20 days after treatment (DAT).

A further assay has as its system Ambrosia artemisiifolia. The experiment in a line: Greenhouse pre-emergence (PRE) herbicidal test on AMBEL. The settings on record: Ambrosia artemisiifolia, pre-emergence, 480 h, PRE, AMBEL, 20 DAT, read-out: solo application % activity. As to the method: as §1
(§8) The containers were irrigated gently to promote germination and growth and subsequently covered with transparent plastic hoods until the plants had rooted.
as §3, §4, §5, §7

The test system of another assay is Setaria viridis. The assay is described as follows: Greenhouse pre-emergence (PRE) herbicidal test on SETVI. The settings on record: Setaria viridis, pre-emergence; for inhibition at 6.25 g/ha / inhibition at 12.5 g/ha: read-out: % activity.
Text: as §1
For the pre-emergence treatment, the active compounds, suspended or emulsified in water, were applied directly after sowing by means of finely distributing nozzles. The containers were irrigated gently to promote germination and growth and subsequently covered with transparent plastic hoods until the plants had rooted. This cover caused uniform germination of the test plants unless this was adversely affected by the active compounds.
as §3, §4, §5, §6, §7

For assay [2], the system named is Echinochloa crus-galli. The assay is described as follows: Greenhouse post-emergence (POST) herbicidal test on ECHCG. The settings on record: Echinochloa crus-galli, post-emergence. As to the method: as §1, §2, §3, §4, §5, §6, §7
For assay [3], the system named is Euphorbia heterophylla. The assay is described as follows: Greenhouse post-emergence (POST) herbicidal test on EPHHL. The settings on record: for % activity: EPHHL POST. As to the method:
as §1, §2, §3, §4, §5, §6, §7

Another assay concerns Alopecurus myosuroides. The experiment in a line: Greenhouse pre-emergence (PRE) herbicidal test on ALOMY. The settings on record: Alopecurus myosuroides, pre-emergence; for inhibition at 6.25 g/ha: read-out: % activity. As to the method:
as §1, §8, §3, §4, §5, §7

In a further assay the test system is Geranium pusillum. The assay is described as follows: Greenhouse post-emergence (POST) herbicidal test on GERPU. The settings on record: Geranium pusillum, post-emergence. The protocol: as §1, §2, §3, §4, §5, §6, §7
The test system of assay [4] is Abutilon theophrasti. The assay is described as follows: Greenhouse pre-emergence (PRE) herbicidal test on ABUTH. The settings on record: Abutilon theophrasti, pre-emergence, 480 h, PRE, ABUTH, 20 DAT, read-out: solo application % activity. As to the method:
as §1, §8, §3, §4, §5, §7

Assay [5] relates to Euphorbia heterophylla. The experiment in a line: Greenhouse pre-emergence (PRE) herbicidal test on EPHHL. The settings on record: Euphorbia heterophylla, pre-emergence, 480 h, PRE, EPHHL, 20 DAT, read-out: solo application % activity. The protocol:
as §1, §8, §3, §4, §5, §7

In a further assay the test system is Lolium multiflorum. The assay is described as follows: Greenhouse pre-emergence (PRE) herbicidal test on LOLMU. The settings on record: Lolium multiflorum, pre-emergence, 480 h. As to the method: as §1, §8, §3, §4, §5, §7
The test system of a further assay is Amaranthus retroflexus. The experiment in a line: Greenhouse post-emergence (POST) herbicidal test on AMARE. As to the method:
as §1, §2, §3, §4, §5, §6, §7

Assay [6] concerns Echinochloa crus-galli. The assay is described as follows: Greenhouse pre-emergence (PRE) herbicidal test on ECHCG. The settings on record: Echinochloa crus-galli, pre-emergence, 480 h, read-out: % activity. The protocol:
as §1, §8, §3, §4, §5, §7

The next assay concerns Commelina benghalensis. The assay is described as follows: Greenhouse pre-emergence (PRE) herbicidal test on COMBE. The settings on record: Commelina benghalensis, pre-emergence, read-out: % activity. As to the method: as §1, §8, §3, §4, §5, §7
[7] abbreviates: Amaranthus retroflexus, post-emergence, read-out: % activity.

For the molecule `Cc1cccc(C2CC2)c1Oc1nnc(Cl)cc1OC(=O)N1CCOCC1` [Cyclopyrimorate, cyclopyrimorate], the “% activity” value in the assay on Abutilon theophrasti [1] (use rate 25 gai/ha) came out at 5%; in the assay on Digitaria sanguinalis (use rate 25 gai/ha), 10%; in the assay on Digitaria sanguinalis (use rate 200 gai/ha), 40%; in the assay on Ipomoea hederacea (use rate 25 gai/ha) it was 40%.
For `C#CCN1C(=O)COc2cc(F)c(N3C(=O)C4=C(CCCC4)C3=O)cc21` [Flumioxazin, flumioxazin], the inhibition at 0.5 g/ha in the assay on Ambrosia artemisiifolia (use rate 0.5 gai/ha) is 0%; in the assay on Setaria viridis (480 h, PRE, SETVI, use rate 0.5 gai/ha, 20 DAT, read-out: solo application % activity), 0%; with Echinochloa crus-galli [2] (480 h, POST, ECHCG, use rate 0.5 gai/ha, 20 DAT, read-out: solo application % activity) it was 0%; in the assay with Alopecurus myosuroides (480 h, PRE, ALOMY, use rate 0.5 gai/ha, 20 DAT, read-out: solo application % activity) it was 0%; in the assay with Abutilon theophrasti [4] (use rate 0.5 gai/ha), 0%; in the assay with Euphorbia heterophylla [5] (use rate 0.5 gai/ha), 5%. The inhibition at 0.5 g/ha in the assay with Lolium multiflorum (PRE, LOLMU, use rate 0.5 gai/ha, 20 DAT, read-out: solo application % activity) was 0%. Besides, the inhibition at 2 g/ha came out at 0% in the assay on Ambrosia artemisiifolia (use rate 2 gai/ha); 0% with Setaria viridis (480 h, PRE, SETVI, use rate 2 gai/ha, 20 DAT, read-out: solo application % activity); 30% with Echinochloa crus-galli [2] (480 h, POST, ECHCG, use rate 2 gai/ha, 20 DAT, read-out: solo application % activity); 70% in the assay with Abutilon theophrasti [1] (Abutilon theophrasti, post-emergence, 480 h, POST, ABUTH, use rate 2 gai/ha, 20 DAT, read-out: solo application % activity); 25% with Digitaria sanguinalis (Digitaria sanguinalis, post-emergence, 480 h, POST, DIGSA, use rate 2 gai/ha, 20 DAT, read-out: solo application % activity); 45% with Geranium pusillum (480 h, POST, GERPU, use rate 2 gai/ha, 20 DAT, read-out: solo application % activity). In addition, in the assay on Euphorbia heterophylla [5] (use rate 2 gai/ha), the inhibition at 2 g/ha amounted to 10%. For the same molecule, the inhibition at 1 g/ha came to 0% with Setaria viridis (480 h, PRE, SETVI, use rate 1 gai/ha, 20 DAT, read-out: solo application % activity); 5% in the assay on Echinochloa crus-galli [2] (480 h, POST, ECHCG, use rate 1 gai/ha, 20 DAT, read-out: solo application % activity); 60% in the assay on Euphorbia heterophylla [3] (Euphorbia heterophylla, post-emergence, 480 h, POST, EPHHL, use rate 1 gai/ha, 20 DAT, read-out: solo application % activity); 10% in the assay on Digitaria sanguinalis (Digitaria sanguinalis, post-emergence, 480 h, POST, DIGSA, use rate 1 gai/ha, 20 DAT, read-out: solo application % activity); 0% with Abutilon theophrasti [4] (use rate 1 gai/ha); 5% in the assay with Euphorbia heterophylla [5] (use rate 1 gai/ha). The inhibition at […] amounted to 0% with Alopecurus myosuroides (480 h, PRE, ALOMY, use rate 0.25 gai/ha, 20 DAT, read-out: solo application % activity); 0% with Abutilon theophrasti [4] (use rate 0.25 gai/ha); 0% in the assay with Euphorbia heterophylla [5] (use rate 0.25 gai/ha).
For `O=C(O)CNCP(=O)(O)O` [Glyphosate, glyphosate], the inhibition at 100 g/ha in the assay with Echinochloa crus-galli [2] (read-out: % activity) came to 30%; in the assay with Amaranthus retroflexus (setting [7]), 10%; in the assay with Geranium pusillum (read-out: % activity) it was 45%. For the same molecule, the inhibition at 200 g/ha came to 35% in the assay on Echinochloa crus-galli [2] (read-out: % activity); 80% with Amaranthus retroflexus (setting [7]); 25% in the assay on Abutilon theophrasti [1] (Abutilon theophrasti, post-emergence, read-out: % activity); 15% in the assay with Ipomoea hederacea (Ipomoea hederacea, post-emergence, read-out: % activity).
For the molecule `CCC/C(=N\OCC)C1=C(O)CC(CC(C)SCC)CC1=O` (stereo not shown) [Sethoxydim, sethoxydim], the inhibition at 6.25 g/ha with Setaria viridis (480 h) worked out at 5%; in the assay on Setaria viridis, 5%; in the assay with Echinochloa crus-galli [6], 10%; in the assay with Commelina benghalensis, 0%; in the assay on Alopecurus myosuroides (480 h), 20%; with Alopecurus myosuroides it was 20%. The inhibition at 6.25 g/ha with Lolium multiflorum (read-out: % activity) is 15%. Also, the figures for the inhibition at 12.5 g/ha in the assay with Setaria viridis (480 h), in the assay with Setaria viridis and with Echinochloa crus-galli [6] were 60%, 60% and 40%, respectively.
Take `CN1C[C@H](c2cccc(C(F)(F)F)c2)[C@@H](C(=O)Nc2ccccc2F)C1=O` [Tetflupyrolimet, tetflupyrolimet]: the “% activity” value came to 35% with Amaranthus retroflexus (AMARE POST, use rate 250 gai/ha); 0% in the assay on Euphorbia heterophylla [3] (use rate 31.25 gai/ha); 0% with Euphorbia heterophylla [3] (use rate 250 gai/ha); 5% in the assay with Abutilon theophrasti [1] (use rate 250 gai/ha); 0% in the assay with Ipomoea hederacea (use rate 31.25 gai/ha).
